# Values joined by “and” are separate entries in the source; they are usually repeats but may differ in a detail not shown here. Identical values can stand only once. “Also recorded” adds a separate entry of the source. Like-named read-outs stand apart in the source and are kept apart here.
# Key:
# [1] = target: T1, mOR174-9 (Mus musculus, UniProt Q920P2); test: Vapor response of mOR-functionalized carbon nanotube transistor
# T1 sequence (Q920P2 1-313): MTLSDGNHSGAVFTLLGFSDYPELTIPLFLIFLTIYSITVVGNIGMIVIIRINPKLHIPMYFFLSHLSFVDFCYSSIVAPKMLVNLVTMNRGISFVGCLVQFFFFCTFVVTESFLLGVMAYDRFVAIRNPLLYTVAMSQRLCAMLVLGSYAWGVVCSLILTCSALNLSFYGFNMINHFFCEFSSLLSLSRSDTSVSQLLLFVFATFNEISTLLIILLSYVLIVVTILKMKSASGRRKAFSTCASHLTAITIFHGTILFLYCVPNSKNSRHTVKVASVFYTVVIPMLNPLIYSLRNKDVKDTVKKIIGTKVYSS
# [2] = target: T2, mOR256-17 (Mus musculus, UniProt P23275); conditions: cited from earlier work
# T2 sequence (P23275 1-312): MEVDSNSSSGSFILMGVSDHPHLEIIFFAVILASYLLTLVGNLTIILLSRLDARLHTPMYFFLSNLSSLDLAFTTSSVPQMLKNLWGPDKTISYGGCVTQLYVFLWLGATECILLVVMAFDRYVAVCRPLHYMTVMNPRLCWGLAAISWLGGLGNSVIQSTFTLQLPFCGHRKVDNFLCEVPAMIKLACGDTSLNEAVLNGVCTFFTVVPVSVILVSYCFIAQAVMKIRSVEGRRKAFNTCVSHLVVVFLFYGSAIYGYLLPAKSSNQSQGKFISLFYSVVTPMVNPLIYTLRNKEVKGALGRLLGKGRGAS
# [3] = target: T2, mOR256-17; test: Xenopus oocyte expression with robotic electrophysiology; conditions: mOR 256-17
# [4] = Control vapor response of bare nanotube devices and devices with Ni-NTA and empty digitonin micelles; conditions: bare NT transistors and devices treated with Ni-NTA and empty digitonin micelles
# [5] = tested on: mouse olfactory receptor proteins (mORs); test: Vapor response of mOR-functionalized NT devices, mOR not specified; type: binding; conditions: all three mORs
# [6] = target: T2, mOR256-17; test: Vapor response of mOR-functionalized carbon nanotube transistor, high-speed data acquisition; type: binding; parameters: made in house; host or cells: Sf9 insect cells (Bac-to-Bac, pFastBac HT, Invitrogen); conditions: cyclohexanone 2250 ppm, mOR 256-17 in nanodiscs
# [7] = tested on: mOR203-1; test: Vapor response of mOR-functionalized carbon nanotube transistor; conditions: for NT device response: FIG. 12A
# [8] = tested on: mOR203-1; conditions: mOR203-1 expressed in HEK cells; cited from earlier work
# [9] = mOR203-1 in digitonin micelles, single sensor, FIG. 4
smiles,measurement,setting,value
O=C1CCCCC1 [cyclohexanone],NT device response shared by both packaging methods,"[1]; mOR 174-9, surfactant stabilized and nanodisc stabilized",response shared between the two packaging methods
same,response of mOR256-17 according to published reports,[2],responds
same,"oocyte measurement response, in words",[3],show a response
same,response of control devices without mOR,[4],small response
same,response of the inventive devices,[5],strong response
same,"response time constant, first of double exponential fit (FIG. 11D)",[6],2.06 ± 0.01 s
same,"response time constant, second of double exponential fit (FIG. 11D)",[6],25.51 ± 0.04 s
same,"sensing response time constant, first of double exponential fit (FIG. 3)",[6],9.1 s and 9.08 ± 0.04 s
same,"sensing response time constant, second of double exponential fit (FIG. 3)",[6],41.2 s and 41.2 ± 0.4 s
CCCCCC(C)=O [2-heptanone],response of mOR256-17 according to published reports,[2],not
same,NT device response with both packaging methods,"[7]; mOR 203-1, surfactant stabilized and nanodisc stabilized",expected response
same,NT device response,[7]; mOR203-1 in digitonin micelles,strong response
same,change in conductance,[7]; [9],negative changes in conductance
same,HEK data response,[8],strong response
CCCCCOC(C)=O [n-amyl acetate],change in conductance,[7]; [9],negative changes in conductance
C=CCc1ccc(O)c(OC)c1 [eugenol],NT device response shared by both packaging methods,[1],expected response
same,sensing response (change in device current),[1],large positive responses; also recorded: large positive sensing response
same,change in conductance,[7]; [9],positive changes in conductance
same,response of control devices without mOR,[4],no change in conductance
CCCCCCC=O [heptanal],response of mOR256-17 according to published reports,[2],not
same,NT device response,[7]; mOR203-1 in digitonin micelles,lack of response
same,HEK data response,[8],lack of response
CC(=O)c1ccccc1 [acetophenone],NT device response,[7]; mOR203-1 in digitonin micelles,lack of response
same,HEK data response,[8],lack of response
COC(=O)c1ccccc1 [methyl benzoate],change in conductance,[7],no change in conductance

# From patent publication US9612240B2, “Biomimetic chemical sensors using nanoelectronic readout of olfactory receptors” (The Trustees Of The University Of Pennsylvania, priority 2010, dated 2017)
